Data reported in patent US12637424B2, “Pharmaceutical salt of an arylpyrrole derivative” (SENTINEL ONCOLOGY LIMITED, priority 2020, dated 2026).
Read-outs that look alike come from different tables or passages of the source.

How the values were obtained:
[1] = test system: HeLa cells stably expressing a Centrin1-GFP fusion protein; assay: Centriole number (Centrin1-GFP) assay; format: cell-based; details: 0.02 μM, 72 hours
Procedure: The effect of A-2 on centrosome function was therefore investigated further. HeLa cells stably expressing a Centrin1-GFP fusion protein were seeded into 96-well plates overnight. Cells were treated with atropisomer A-2 (at a concentration of 0.02 μM in DMSO) or DMSO control for 72 hours and then imaged using a fluorescence microscope. Multiple cell fields were captured for each treatment condition, and the images were subsequently analysed manually. Centrin1-GFP specifically marks centrioles as discrete foci, and therefore can be used to quantitate centriole number per cell. Thus, for each treatment condition, 100 cells were analysed and the number of centrioles present in each cell was recorded. The data were then separated into bins (no centrioles, 1 centriole, 2 centrioles, and greater than 2 centrioles) and are shown in FIG. 11.

[2] = Chiral stability (interconversion) of isolated atropisomers in ethanol; format: physicochemical; details: for % ee of sample @ 40° C. / % ee sample @ 80° C.: ethanol; for interconversion / racemization of atropisomers: heating for 10 days at 40° C. and 80° C.
Procedure: To assess the interconversion of atropisomer A-1 and atropisomer A-2, chiral stability was monitored at 40° C. and 80° C. […] 1. 2×1 mg of pure atropisomer was dissolved in 1 mL of ethanol in a sealed-dram vial. • 2. One set of vials was heated at 40° C. and another set at 80° C. • 3. At specified time-points a 20 μL aliquot from each stock solution (1 mL) was taken and quenched into a HPLC vial containing a 80 μL solution of hexane:ethanol; 80:20 to afford a final concentration of […] and the sample was analysed by chiral HPLC • 4. Analysis was carried out at the following time-points: 0 h, 24 h, 48 h, 72 h, 96 h and 240 h for the samples kept at 40° C. and 24 h, 96 h and 240 h for the samples kept at 80° C. using chiral HPLC method 5

[3] = Oral bioavailability and brain exposure in mouse PK; format: in vivo, Male CD-1 mice; details: mice
Procedure: Atropisomer A-2 was evaluated in an in vivo mouse model to determine brain and plasma concentrations following p.o. and i.v. dosing. Male CD-1 mice were dosed with atropisomer A-2, either by i.v. administration (2 mg/kg) or by p.o. administration (10 mg/kg). Eight samples were taken for analysis in the i.v. leg at 2, 10, 30 min, 1, 2, 4, 8, and 24 (for i.v) and 9 samples in the p.o. leg at 15, 30 min, 1, 2, 4, 8, 24, 48 and 72 hrs. Atropisomer A-2 was formulated in 10% DMSO/[…] hydroxypropyl-beta-cyclodextrin (20% w/v in water) for i.v. and p.o. dosing. N=3 mice per time point. Post dosing, terminal blood samples were taken from individual animals and delivered into labelled polypropylene tubes containing anticoagulant (EDTA). The samples were held on wet ice for a maximum of 30 min while sampling of all the animals in the cohort was completed. The blood samples were centrifuged for plasma (4° C., 21100 g for 5 min) and the resulting plasma transferred into corresponding labelled tubes. Terminal brains from each PO dosed animal were excised, rinsed with saline and placed into pre-weighed labelled polypropylene tubes and the samples re-weighed prior to storage. Quantitative bioanalysis was carried out using liquid chromatography—mass spectroscopy was performed. The results are shown in Tables 14 and 15 below and in FIGS. 12 and 13.

[4] = test system: HeLa cells engineered to inducibly express oncogenic KRasG12V; assay: Wild-type versus KRAS HeLa cell viability (Cell Titre Blue); format: cell-based; details: Homo sapiens, KRAS G12V transgene, 72 hours
Procedure: Thus, atropisomer A-2 was tested on HeLa cells engineered to inducibly express wild-type or oncogenic […] transgenes using the FLP-in/T-Rex system (Invitrogen). Cells were plated, and then treated with or without doxycycline to induce transgene expression, and then treated with serially-diluted atropisomer A-2. After 72 hours of incubation, cell viability was assessed using the Cell Titre Blue reagent (Promega) and a BMG Pherastar plate reader. The effect of PBD inhibition on cell viability with either wild-type or oncogenic G12V KRAS was assessed using GraphPad Prism.

[5] = test system: U87MG Human Glioblastoma Cancer Cell; assay: U87MG cell viability (SRB assay); format: cell-based; details: 72 hours, read-out: IC50 for inhibition of cell growth
Procedure: The following protocol was used to measure the effects of atropisomers A-1 and A-2 on U87MG cell viability. U87MG cells were grown in their recommended growth media/supplements (ATCC). Cells were seeded at a concentration of 5000 cells per well into 96 well plates overnight at 37° C., 5% CO2. Cells were treated with relevant concentrations of test compound for 72 hours. After 72 h incubation, viability was established using sulforhodamine B (SRB) colorimetric assay. Percentage viability was calculated against the mean of the DMSO treated control samples, and IC50 values for inhibition of cell growth were calculated using GraphPad Prism software by nonlinear regression (4 parameter logistic equation).

AsPC-1 = assay: Cancer cell line panel proliferation (CellTiter-Glo); format: cell-based; details: AsPC-1, Pancreas, 72 hours
Procedure: (§1) Screening against diverse cancer cell lines was performed to identify tumour types displaying sensitivity to atropisomers A-1 and A-2. A panel of 48 cancer-derived cell lines was screened in a high-throughput proliferation assay using dilutions of atropisomers A-1/A-2. Cell lines that were screened included those representing cancer of the pancreas, large intestine/colorectum, lung, brain and nerves, and lymphoma and leukaemia cell lines. Cell lines were treated with serial half-log dilutions of compound and assayed 72 hours later for proliferation using CellTiter-Glo Assay (Promega). IC50 values were calculated by fitting the dose-response data using a nonlinear regression model.

LN-229 = assay: as above; format: cell-based; details: LN-229, Brain&Nerves, 72 hours
Procedure: as §1

KG-1 = assay: as above; format: cell-based; details: KG-1, Blood/Leukaemia, 72 hours
Procedure: as §1

DOHH-2 = assay: as above; format: cell-based; details: DOHH-2, Blood/Lymphoma, 72 hours
Procedure: as §1

U118 MG = assay: as above; format: cell-based; details: Brain&Nerves, 72 hours
Procedure: as §1

A549 = assay: as above; format: cell-based; details: A549, Lung, 72 hours
Procedure: as §1

[6] = test system: U87-Luc cells intracerebrally implanted; assay: U87-Luc orthotopic xenograft model; format: in vivo, male athymic nude mice; details: oral 100 mg/kg on days 1, 4, 7, 10 and 13; Day 15
Procedure: U87-Luc cells were intracerebrally implanted into the brains of male athymic nude mice and tumour growth was monitored by bioluminescent signal. In the treatment group animals were given an oral dose of 100 mg/kg of atropisomer A-2 on days 1, 4, 7, 10 and 13. The control group animals were given vehicle only.

SMILES	% ee of sample @ 40° C. ([2]; 0 h) [% ee]	% ee of sample @ 40° C. ([2]; 24 h) [% ee]	% ee of sample @ 40° C. ([2]; 48 h) [% ee]	% ee of sample @ 40° C. ([2]; 72 h) [% ee]	% ee of sample @ 40° C. ([2]; 96 h) [% ee]	% ee of sample @ 40° C. ([2]; 10 days) [% ee]	% ee sample @ 80° C. ([2]; 0 h) [% ee]	% ee sample @ 80° C. ([2]; 24 h) [% ee]	% ee sample @ 80° C. ([2]; 96 h) [% ee]	% ee sample @ 80° C. ([2]; 10 days) [% ee]	interconversion / racemization of atropisomers [2]	also measured
CN(C)CCNC(=O)c1ccc(-c2ccc(-c3ccc(Cl)cc3)n2-c2ccccc2C(F)(F)F)cc1 (single isomer, unassigned) [Atropisomer A-2]	97.20	97.34	97.30	97.24	97.14	97.46	97.20	95.62	96.62	97.12	no interconversion was observed	effect on centriole number per cell [1]: evidence of PLK4 inhibition phenotypes; CI ([3]; 2 mg/Kg IV, plasma): 20.5 mL/min/kg; F ([3]; 10 mg/Kg PO vs 2 mg/Kg IV): 76%; GI50 [4]: 0.00208 µM; IC50 ([5]; Homo sapiens, U-87 MG): 0.22 µM; IC50 (AsPC-1; Homo sapiens, ASPC1): 2.9 µM; IC50 (LN-229; Homo sapiens): 0.31 µM; IC50 (KG-1; Homo sapiens): 0.46 µM; IC50 (DOHH-2; Homo sapiens): 0.23 µM; IC50 (U118 MG; Homo sapiens, U-118-MG): 0.47 µM; IC50 (A549; Homo sapiens): 0.3 µM; bioluminescent tumour signal, treated versus control [6]: a decrease in tumour signal
CN(C)CCNC(=O)c1ccc(-c2ccc(-c3ccc(Cl)cc3)n2-c2ccccc2C(F)(F)F)cc1 (single isomer, unassigned; atropisomer a) [Atropisomer A-1]	100	100	100	100	100	100	100	100	100	100	no interconversion was observed	IC50 [5]: 4.6 µM; IC50 (AsPC-1): > 10 µM; IC50 (LN-229): 7.37 µM; IC50 (KG-1): > 10 µM; IC50 (DOHH-2): 5.64 µM; IC50 (U118 MG): 7.6 µM; IC50 (A549): 9.19 µM
